# “Also recorded” adds a separate entry of the source.
# Legend:
# [1] = system: rat formalin paw test (late phase); assay: Rat formalin paw test (late phase): number of flinches and licking time; assay type: in vivo, rat (Rj: Wistar (Han))
# Procedure: Rats were given an intraplantar injection of 5% formalin (50 μl) into the posterior left paw. This treatment induces a recognizable flinching and licking response of the affected paw in control animals. The number of flinches was counted for 15 minutes, beginning 20 minutes after injection of formalin. The time spent licking the affected paw was also recorded.
# Male Rj: Wistar (Han) rats, 10 per group, weighing 100-130 g at the beginning of the experiments were studied per group. The test was performed blind.
# Lacosamide (20 mg/kg), gabapentin (50 and 100 mg/kg), combinations of lacosamide (20 mg/kg) with gabapentin (50 and 100 mg/kg), and vehicle were administered i.p. 10 minutes before injection of formalin.
# Lacosamide (10 and 20 mg/kg), morphine (2 and 4 mg/kg), combinations of lacosamide (10 and 20 mg/kg) with morphine (2 and 4 mg/kg), and vehicle were administered i.p. 10 minutes before injection of formalin.
# Lacosamide (10 mg/kg), duloxetine (8 mg/kg), a combination of lacosamide (10 mg/kg) with duloxetine (8 mg/kg), and vehicle were administered i.p. 10 minutes before injection of formalin.
# Lacosamide (10 and 20 mg/kg), memantine (4 and 8 mg/kg), combinations of lacosamide (10 and 20 mg/kg) with memantine (4 and 8 mg/kg), and vehicle were administered i.p. 10 minutes before injection of formalin.
# Lacosamide (10 and 20 mg/kg), naproxen (8 and 16 mg/kg), combinations of lacosamide (10 and 20 mg/kg) with […] (8 and 16 mg/kg), and vehicle were administered i.p. 10 minutes before injection of formalin. Morphine (8 mg/kg) was included as a comparative treatment.
# [2] = system: biceps muscle grip strength after TNF-induced muscle pain; assay: Biceps muscle grip strength after TNF-induced muscle pain; assay type: in vivo, rat (Sprague Dawley); details: for reversal of TNF-induced reduction of grip strength: 6 h after TNF i.m., 30 to 60 minutes after drug
# Procedure: (§1) Adult male Sprague Dawley rats with a body weight of 250 g to 300 g were used (supplier: Charles River, Sulzfeld, Germany). Animals were group-housed (3 animals per cage) and maintained in a room with controlled temperature (21-22° C.) and a reversed light-dark cycle (12 h/12 h) with food and water available ad libitum. All experiments were approved by the Bavarian State animal experimentation committee and carried out in accordance with its regulations.
# (§2) Recombinant rat tumor necrosis factor alpha (herein referred to as TNF) was obtained from R&D Systems, Minneapolis, Minn., U.S.A. TNF was diluted in 0.9% NaCl and used in a concentration of 1 μg in 50 μl. Injections were performed in short halothane narcosis with a 30 g needle bilaterally into the gastrocnemius or into the biceps brachii muscle. All rats were used to the behavioral tests before injections and baseline values were recorded over three test days.
# Grip strength of the forelimbs was tested with a digital grip force meter (DFIS series, Chatillon, Greensboro, NC, U.S.A.). The rat was positioned to grab the grid with the forelimbs and was gently pulled so that the grip strength could be recorded. Means of three trials were calculated. The effect of the TNF treatment was calculated for each animal separately and only animals with a significant TNF effect were included for further analysis.
# Rats were injected with TNF into the biceps brachii muscle at 8 am. Six hours later, grip strength of the forelimbs was tested with a digital grip force meter. Test drug was administered, and grip strength was again tested after 30 to 60 minutes.
# (§3) The rats, initially 10 per group, were treated with either 3, 10 or 30 mg/kg lacosamide, 2 mg/kg metamizol, 30 or 100 mg/kg pregabalin, 100 mg/kg gabapentin, or the NaCl vehicle, i.p. (intraperitoneally). Volume of i.p. injections was 0.5 ml. A pilot study was performed to confirm that i.m. (intramuscular) injection of 1 μg TNF into the gastrocnemius muscle was sufficient to induce pressure hyperalgesia.
# (§4) Data are shown in graphs displaying means and standard errors of the means (SEM). Pre- and post-treatment data were compared using ANOVA (analysis of variance) and a Tukey post hoc test. Means of treatment groups were compared using a one-way ANOVA and Dunnett's post hoc test. Maximal possible effects (MPE) were calculated for all types of treatment.
# [3] = system: monosodium iodoacetate-induced tactile allodynia; assay: Monosodium iodoacetate-induced tactile allodynia (von Frey filaments); assay type: in vivo, rat (Wistar)
# [4] = system: monosodium iodoacetate-induced mechanical hyperalgesia; assay: Monosodium iodoacetate-induced mechanical hyperalgesia (Randall-Selitto paw pressure); assay type: in vivo, rat (Wistar)
# [5] = system: muscle pressure hyperalgesia induced by TNF; assay: TNF-induced muscle pressure hyperalgesia (Randall-Selitto, withdrawal threshold to muscle pressure); assay type: in vivo, rat (Sprague Dawley); details: for reversal of muscular mechanical hyperalgesia (withdrawal threshold to muscle pressure): 18 h after TNF i.m., 30 to 60 minutes after drug
# Procedure: as §1, §2
# Mechanical withdrawal thresholds to muscle pressure were measured with an analgesimeter (Ugo Basile, Comerio, Italy). The rat was allowed to crawl into a sock which helps the rat to relax. The hind limbs were positioned such that an increasing pressure could be applied onto the gastrocnemius muscle (maximum 250 g). The pressure needed to elicit withdrawal was recorded. Means of 3 trials for each hind limb were calculated (interstimulus interval of >30 sec). Only animals with a significant TNF effect were included for further analysis.
# Rats were injected with TNF into the gastrocnemius muscle at 2 pm. Eighteen hours later, rats were tested for pressure hyperalgesia pre- and post-administration of the test drug. Rats were tested for pressure hyperalgesia 30 to 60 minutes after drug administration.
# as §3, §4
smiles,measurement,setting,value
"COC[C@@H](NC(C)=O)C(=O)NCc1ccccc1 [Lacosamide, (R)-2-acetamido-N-benzyl-3-methoxypropionamide]",Licking time % change (a) compared with vehicle control,"[1]; Example 3, 20 mg/kg i.p. alone",−34% (a)
same,Licking time (seconds) mean ± SEM,"[1]; Example 3, 20 mg/kg i.p. alone",146.9 ± 23.8 NS (a) seconds
same,No. of flinches % change (a) compared with vehicle control,"[1]; Example 3, 20 mg/kg i.p. alone",−33% (a)
same,No. of flinches mean ± SEM,"[1]; Example 3, 20 mg/kg i.p. alone",85.7 ± 14.3 NS (a)
same,decrease of the number of flinches as compared with vehicle controls,"[1]; Example 3, 20 mg/kg i.p. alone",33%
same,decrease of the time spent licking as compared with vehicle controls,"[1]; Example 3, 20 mg/kg i.p. alone",34%
same,Licking time % change (a) compared with vehicle control,"[1]; Example 4, 10 mg/kg i.p. alone",−28% (a)
same,Licking time (seconds) mean ± SEM,"[1]; Example 4, 10 mg/kg i.p. alone",210.1 ± 22.7 (a) seconds
same,No. of flinches % change (a) compared with vehicle control,"[1]; Example 4, 10 mg/kg i.p. alone",+22% (a)
same,No. of flinches mean ± SEM,"[1]; Example 4, 10 mg/kg i.p. alone",182.7 ± 25.9 NS (a)
same,decrease of the time spent licking as compared with vehicle controls,"[1]; Example 4, 10 mg/kg i.p. alone",28%
same,increase of the number of flinches as compared with vehicle controls,"[1]; Example 4, 10 mg/kg i.p. alone",22%
same,Licking time % change (a) compared with vehicle control,"[1]; Example 4, 20 mg/kg i.p. alone",−56% (a)
same,Licking time (seconds) mean ± SEM,"[1]; Example 4, 20 mg/kg i.p. alone",128.2 ± 28.0 (a) seconds
same,No. of flinches % change (a) compared with vehicle control,"[1]; Example 4, 20 mg/kg i.p. alone",−35% (a)
same,No. of flinches mean ± SEM,"[1]; Example 4, 20 mg/kg i.p. alone",97.2 ± 16.0 NS (a)
same,decrease of the number of flinches as compared with vehicle controls,"[1]; Example 4, 20 mg/kg i.p. alone",35%
same,decrease of the time spent licking as compared with vehicle controls,"[1]; Example 4, 20 mg/kg i.p. alone",56%
same,Licking time % change (a) compared with vehicle control,"[1]; Example 5, 10 mg/kg i.p. alone",−30% (a)
same,Licking time (seconds) mean ± SEM,"[1]; Example 5, 10 mg/kg i.p. alone",185.2 ± 31.7 NS (a) seconds
same,No. of flinches % change (a) compared with vehicle control,"[1]; Example 5, 10 mg/kg i.p. alone",+5% (a)
same,No. of flinches mean ± SEM,"[1]; Example 5, 10 mg/kg i.p. alone",158.2 ± 15.6 NS (a)
same,decrease of the time spent licking as compared with vehicle controls,"[1]; Example 5, 10 mg/kg i.p. alone",30%
same,effects on the number of flinches and the time spent licking,"[1]; Example 5, 10 mg/kg i.p. alone",had no significant effects
same,Licking time % change (a) compared with vehicle control,"[1]; Example 6, 10 mg/kg i.p. alone",−4% (a)
same,Licking time (seconds) mean ± SEM,"[1]; Example 6, 10 mg/kg i.p. alone",168.5 ± 23.9 NS (a) seconds
same,No. of flinches % change (a) compared with vehicle control,"[1]; Example 6, 10 mg/kg i.p. alone",−31% (a)
same,No. of flinches mean ± SEM,"[1]; Example 6, 10 mg/kg i.p. alone",113.9 ± 23.2 NS (a)
same,decrease of the number of flinches as compared with vehicle controls,"[1]; Example 6, 10 mg/kg i.p. alone",31%
same,effect on the time spent licking as compared with vehicle controls,"[1]; Example 6, 10 mg/kg i.p. alone",had no clear effects
same,Licking time % change (a) compared with vehicle control,"[1]; Example 6, 20 mg/kg i.p. alone",−52% (a)
same,Licking time (seconds) mean ± SEM,"[1]; Example 6, 20 mg/kg i.p. alone",85.1 ± 19.1 (a) seconds
same,No. of flinches % change (a) compared with vehicle control,"[1]; Example 6, 20 mg/kg i.p. alone",−48% (a)
same,No. of flinches mean ± SEM,"[1]; Example 6, 20 mg/kg i.p. alone",85.8 ± 14.4 (a)
same,decrease of the number of flinches as compared with vehicle controls,"[1]; Example 6, 20 mg/kg i.p. alone",48%
same,decrease of the time spent licking as compared with vehicle controls,"[1]; Example 6, 20 mg/kg i.p. alone",52%
same,Licking time % change (a) compared with vehicle control,"[1]; Example 7, 10 mg/kg i.p. alone",−9% (a)
same,Licking time (seconds) mean ± SEM,"[1]; Example 7, 10 mg/kg i.p. alone",174.7 ± 20.4 NS (a) seconds
same,No. of flinches % change (a) compared with vehicle control,"[1]; Example 7, 10 mg/kg i.p. alone",−13% (a)
same,No. of flinches mean ± SEM,"[1]; Example 7, 10 mg/kg i.p. alone",99.2 ± 16.6 NS (a)
same,effect on the time spent licking as compared with vehicle controls,"[1]; Example 7, 10 mg/kg i.p. alone",had no clear effects
same,Licking time % change (a) compared with vehicle control,"[1]; Example 7, 20 mg/kg i.p. alone",−59% (a)
same,Licking time (seconds) mean ± SEM,"[1]; Example 7, 20 mg/kg i.p. alone",78.9 ± 20.4 ***(a) seconds
same,No. of flinches % change (a) compared with vehicle control,"[1]; Example 7, 20 mg/kg i.p. alone",−12% (a)
same,No. of flinches mean ± SEM,"[1]; Example 7, 20 mg/kg i.p. alone",100.3 ± 22.3 NS (a)
same,decrease of the time spent licking as compared with vehicle controls,"[1]; Example 7, 20 mg/kg i.p. alone",59%
same,effect on the number of flinches as compared with vehicle controls,"[1]; Example 7, 10 and 20 mg/kg i.p. alone",did not clearly affect
same,"MPE (maximal possible effect) on biceps muscle grip strength, compared with vehicle",[2]; 10 mg/kg i.p.,significantly different from vehicle
same,reversal of TNF-induced reduction of grip strength,[2]; 10 mg/kg i.p.,significant reversal; also recorded: reversed the effect of TNF on the muscle
same,"MPE (maximal possible effect) on biceps muscle grip strength, compared with vehicle",[2]; 30 mg/kg i.p.,significantly different from vehicle
same,reversal of TNF-induced reduction of grip strength,[2]; 30 mg/kg i.p.,significant reversal
same,tactile allodynia of iodoacetate-treated rats (von Frey),"[3]; day 3, 30 mg/kg p.o., 60 minutes before test",improved tactile allodynia
same,tactile allodynia of iodoacetate-treated rats (von Frey),"[3]; day 7, 30 mg/kg p.o., 60 minutes before test",improved tactile allodynia
same,tactile allodynia of iodoacetate-treated rats (von Frey),"[3]; day 14, 30 mg/kg p.o., 60 minutes before test",not on day 14
same,tactile allodynia of iodoacetate-treated rats (von Frey),[3]; lower doses (3 and 10 mg/kg p.o.),showed a trend for such improvement
same,paw pressure withdrawal threshold compared to iodoacetate/vehicle treated animals (mechanical hyperalgesia),"[4]; day 3, 3 mg/kg p.o.",increase in paw pressure withdrawal threshold
same,mechanical hyperalgesia (paw pressure withdrawal threshold),"[4]; day 7, 3 mg/kg p.o.",reduced mechanical hyperalgesia
same,mechanical hyperalgesia (paw pressure withdrawal threshold),"[4]; day 7, 10 mg/kg p.o.",reduced mechanical hyperalgesia
same,mechanical hyperalgesia (paw pressure withdrawal threshold),"[4]; day 7, 30 mg/kg p.o.",reduced mechanical hyperalgesia
same,mechanical hyperalgesia (paw pressure withdrawal threshold),"[4]; day 14, 10 mg/kg p.o.",did not show a statistically significant effect
same,mechanical hyperalgesia during the post-inflammatory period,"[4]; p.o., overall conclusion",inhibited mechanical hyperalgesia
same,"MPE (maximal possible effect) on muscle pressure hyperalgesia, compared with vehicle",[5]; 10 mg/kg i.p.,significantly different from vehicle
same,"MPE (maximal possible effect) on muscle pressure hyperalgesia, compared with vehicle",[5]; 30 mg/kg i.p.,significantly different from vehicle
same,reversal of muscular mechanical hyperalgesia (withdrawal threshold to muscle pressure),[5]; 30 mg/kg i.p.,full reversal
same,reversal of muscular mechanical hyperalgesia (withdrawal threshold to muscle pressure),"[5]; 30 mg/kg i.p., listed as lacosamide",complete reversal
same,"muscle hyperalgesia induced by TNF injection in the paw pressure test, dose dependence","[5]; 3, 10 and 30 mg/kg i.p.",dose-dependently improved

# From patent US20070048372A1, “Method for treating non-inflammatory osteoarthritic pain” (SRZ Properties, Inc., priority 2005, published 2007)
